Measurements reported in patent US20040214832A1, “Piperazine derivative renin inhibitors” (priority 2003, published 2004).

Target: T1, human renin (Homo sapiens, UniProt P00797)
T1 sequence (P00797 67-406): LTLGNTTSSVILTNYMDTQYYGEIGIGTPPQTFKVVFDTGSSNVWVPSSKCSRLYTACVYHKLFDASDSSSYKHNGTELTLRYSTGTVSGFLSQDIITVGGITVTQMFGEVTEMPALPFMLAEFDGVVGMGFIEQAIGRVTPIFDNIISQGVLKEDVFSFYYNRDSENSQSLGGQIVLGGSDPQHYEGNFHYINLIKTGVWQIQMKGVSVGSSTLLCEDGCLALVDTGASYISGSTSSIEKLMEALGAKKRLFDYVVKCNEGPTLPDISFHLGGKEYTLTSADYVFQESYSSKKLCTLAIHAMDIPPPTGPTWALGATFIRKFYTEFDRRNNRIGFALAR
Assay: Determination of renin IC50 by tGFP FRET assay
Assay type: biochemical
Conditions: Human recombinant renin, tandem GFP substrate 650 nM, 60 min incubation with compound, pH 7.4, 11-point curve
Outline: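 Human recombinant renin (final 50.4 μIU) preincubated 60 min with compound (5% DMSO final) in 50 mM HEPES, 1 mM EDTA, 1% PEG 8000, 1 mM DTT, 0.1% BSA, pH 7.4, then tandem-GFP substrate added at 650 nM final. FRET fluorescence read; IC50 from 11-point curves spanning 100 μM–1 pM.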

| Structure (SMILES) | IC50 [µM] |
| --- | --- |
| COCCCN1C(=O)COc2ccc(SC[C@H]3CNCC(=O)N3c3ccc(OCCCOCc4ccccc4OC)cc3)cc21 [Example 128, 6-([2R]-1-{4-[3-(2-Methoxybenzyloxy)-propoxy]-phenyl}-6-oxo-piperazin-2-ylmethylsulfanyl)-4-(3-methoxypropyl)-4H-benzo[1,4]oxazin-3-one] | 0.00018 |
| COc1ccccc1COCCCOc1ccc(N2C(=O)CNC[C@@H]2COc2ncccn2)cc1 [Example 81, (6R)-1-{4-[3-(2-methoxybenzyloxy)-propoxy]-phenyl}-6-(pyrimidin-2-yloxymethyl)-piperazin-2-one] | 33.9 |
| COC(=O)Cn1ccc2cc(OC[C@@H]3CNCC(=O)N3c3ccc(OCCCOCc4ccccc4OC)cc3)ccc21 [Example 113, [5-([2S]-1-{4-[3-(2-Methoxybenzyloxy)-propoxy]-phenyl}-6-oxopiperazin-2-ylmethoxy)-indol-1-yl]-acetic acid methyl ester] | 0.01 |
| COc1ccccc1COCCCOc1ccc(N2C(=O)CNC[C@@H]2COc2ccc3c(c2)N(CCOC(C)=O)CCC3)cc1 [Example 31, acetic acid 2-[7-(1-{4-[3-(2-methoxybenzyloxy)-propoxy]-phenyl}-6-oxopiperazin-(2R)-ylmethoxy)-3,4-dihydro-2H-quinolin-1-yl]-ethyl ester] | 0.00042 |
| COc1ccc(COC[C@H]2CNCCN2c2ccc(OCCCOCc3ccc(Cl)c(Cl)c3)cc2)cc1 [Example 63, (2R)-1-{4-[3-(3,4-dichlorobenzyloxy)-propoxy]-phenyl}-2-(4-methoxybenzyloxymethyl)-piperazine] | 11.5 |
| COc1ccccc1COCCCOc1ccc(N2C(=O)CNC[C@H]2COCc2ccc(F)cc2)cc1 [Example 46, (6S)-6-(4-fluorobenzyloxymethyl)-1-{4-[3-(2-methoxybenzyloxy)-propoxy]-phenyl}-piperazin-2-one] | 5.59 |
| COC(=O)c1cc(N2C(=O)CNC[C@@H]2COc2ccc3ccccc3c2)ccc1OCCCOCc1ccccc1OC [Example 96, 2-[(5R)-3-(2-methoxybenzyloxy)-propoxy]-5-[2-(naphthalene-2-yloxymethyl)-6-oxopiperazin-1-yl]-benzoic acid methyl ester] | > 1 |
| COCCCOc1cc(N2C(=O)CNC[C@@H]2COc2ccc3ccccc3c2)ccc1OC [Example 48, (6R)-1-[4-methoxy-3-(3-methoxypropoxy)-phenyl]-6-(naphthalen-2-yloxymethyl)-piperazin-2-one] | 3.84 |
